From patent US10618905B2, “Pyrimidine-based compounds for the treatment of cancer” (G1 Therapeutics, Inc., priority 2016, dated 2020)
pIC50: −log10 of the molar value.

Columns and labels:
Assay type in all cases: biochemical
CDK4/Cyclin D1 = CDK4/Cyclin D1 (Homo sapiens, UniProt P11802); test: CDK4/CyclinD1 kinase assay (Nanosyn, Caliper microfluidic); settings: 12-point dose-response, ATP at Km (200 μM), 1 nM enzyme, 10 hr
Experimental: (§1) Selected compounds disclosed herein were tested in CDK4/cyclinD1, CDK2/CycA and CDK2/cyclinE kinase assays by Nanosyn (Santa Clara, Calif.) to determine their inhibitory effect on these CDKs. The assays were performed using microfluidic kinase detection technology (Caliper Assay Platform). The compounds were tested in 12-point dose-response format in singlicate at Km for ATP. Phosphoacceptor substrate peptide concentration used was 1 μM for all assays and Staurosporine was used as the reference compound for all assays. Specifics of each assay are as described below:
CDK4/CyclinD1: Enzyme concentration: 1 nM; ATP concentration: 200 μM; Incubation time: 10 hr.

CDK6/Cyclin D3 = CDK6/Cyclin D3 (Homo sapiens, UniProt Q00534); test: CDK6/Cyclin D3 kinase assay
Sequence of CDK6/Cyclin D3 (Q00534 whole entry): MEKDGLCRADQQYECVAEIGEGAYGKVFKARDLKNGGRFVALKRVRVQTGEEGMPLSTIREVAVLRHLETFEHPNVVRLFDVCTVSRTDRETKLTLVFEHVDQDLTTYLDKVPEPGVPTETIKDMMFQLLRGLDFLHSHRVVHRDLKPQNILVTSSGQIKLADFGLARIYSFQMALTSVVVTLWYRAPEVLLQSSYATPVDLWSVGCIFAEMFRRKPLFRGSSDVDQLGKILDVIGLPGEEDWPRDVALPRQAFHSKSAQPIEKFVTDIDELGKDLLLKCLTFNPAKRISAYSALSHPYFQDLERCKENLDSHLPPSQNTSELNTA
Sequence of CDK6/Cyclin D3 (P30281 whole entry partner): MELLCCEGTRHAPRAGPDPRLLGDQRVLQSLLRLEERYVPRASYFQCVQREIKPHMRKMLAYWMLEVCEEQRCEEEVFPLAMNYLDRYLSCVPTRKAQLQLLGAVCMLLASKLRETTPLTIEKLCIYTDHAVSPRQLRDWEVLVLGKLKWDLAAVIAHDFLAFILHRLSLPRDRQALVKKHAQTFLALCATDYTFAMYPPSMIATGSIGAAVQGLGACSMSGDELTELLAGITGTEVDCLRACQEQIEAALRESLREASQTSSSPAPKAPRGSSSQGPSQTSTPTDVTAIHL
Experimental: [The procedure below names another target; the source lists this target under the same test.] as §1, with “assays.” for “assays. Specifics of each assay are as described below:”

CDK2/Cyclin E = CDK2/Cyclin E (Homo sapiens, UniProt P24941); test: CDK2/CyclinE kinase assay (Nanosyn, Caliper microfluidic); settings: 12-point dose-response, ATP at Km (100 μM), 0.28 nM enzyme, 1 hr
Experimental: as §1
CDK2/CyclinE: Enzyme concentration: 0.28 nM; ATP concentration: 100 μM; Incubation time: 1 hr.

CDK2/Cyclin A = CDK2/Cyclin A (Homo sapiens, UniProt P24941); test: CDK2/CyclinA kinase assay (Nanosyn, Caliper microfluidic); settings: 12-point dose-response, ATP at Km (50 μM), 0.2 nM enzyme, 3 hr
Experimental: as §1
CDK2/CyclinA: Enzyme concentration: 0.2 nM; ATP concentration: 50 μM; Incubation time: 3 hr.

CDK9/Cyclin T = CDK9/Cyclin T (Homo sapiens, UniProt P50750); test: CDK9/Cyclin T kinase assay
Sequence of CDK9/Cyclin T (P50750 whole entry): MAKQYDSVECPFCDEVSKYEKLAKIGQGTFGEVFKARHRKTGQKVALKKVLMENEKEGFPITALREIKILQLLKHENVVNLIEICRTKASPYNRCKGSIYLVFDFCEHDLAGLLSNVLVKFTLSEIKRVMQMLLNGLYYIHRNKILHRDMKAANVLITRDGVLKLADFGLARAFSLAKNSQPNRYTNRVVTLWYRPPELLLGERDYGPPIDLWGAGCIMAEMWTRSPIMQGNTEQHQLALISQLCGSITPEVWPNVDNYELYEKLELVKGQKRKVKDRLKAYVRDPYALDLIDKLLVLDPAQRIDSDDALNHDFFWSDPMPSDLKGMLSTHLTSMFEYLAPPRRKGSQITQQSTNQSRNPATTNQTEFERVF
Sequence of CDK9/Cyclin T (O60563 whole entry partner): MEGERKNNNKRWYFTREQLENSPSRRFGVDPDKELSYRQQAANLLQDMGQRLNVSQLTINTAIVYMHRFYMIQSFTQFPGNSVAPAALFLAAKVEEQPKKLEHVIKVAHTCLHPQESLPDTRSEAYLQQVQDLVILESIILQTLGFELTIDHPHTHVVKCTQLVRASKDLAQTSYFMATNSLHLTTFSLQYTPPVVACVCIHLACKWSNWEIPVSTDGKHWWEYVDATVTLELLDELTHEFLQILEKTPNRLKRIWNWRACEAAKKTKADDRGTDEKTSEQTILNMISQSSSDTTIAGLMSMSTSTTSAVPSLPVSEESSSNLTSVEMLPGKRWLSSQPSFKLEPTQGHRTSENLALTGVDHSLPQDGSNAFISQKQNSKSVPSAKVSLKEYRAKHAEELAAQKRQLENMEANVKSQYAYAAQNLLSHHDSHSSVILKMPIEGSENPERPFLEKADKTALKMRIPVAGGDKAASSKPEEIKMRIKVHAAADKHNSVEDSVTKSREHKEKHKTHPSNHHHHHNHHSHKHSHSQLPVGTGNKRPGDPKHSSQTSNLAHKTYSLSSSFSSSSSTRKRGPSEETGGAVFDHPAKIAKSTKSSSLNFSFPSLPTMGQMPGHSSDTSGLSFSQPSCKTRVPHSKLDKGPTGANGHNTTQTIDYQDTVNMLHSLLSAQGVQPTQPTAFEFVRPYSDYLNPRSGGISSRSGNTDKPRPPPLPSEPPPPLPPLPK

Sequence of CDK4/Cyclin D1 (P11802 whole entry): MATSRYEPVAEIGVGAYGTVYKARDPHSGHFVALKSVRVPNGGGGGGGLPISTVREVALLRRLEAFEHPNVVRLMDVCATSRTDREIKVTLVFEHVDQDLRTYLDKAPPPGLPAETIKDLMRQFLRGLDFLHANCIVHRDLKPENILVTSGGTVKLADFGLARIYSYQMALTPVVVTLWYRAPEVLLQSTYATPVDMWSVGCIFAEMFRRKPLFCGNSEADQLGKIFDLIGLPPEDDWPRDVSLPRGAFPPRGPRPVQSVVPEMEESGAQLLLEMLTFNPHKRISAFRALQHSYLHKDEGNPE
Sequence of CDK4/Cyclin D1 (P24385 whole entry partner): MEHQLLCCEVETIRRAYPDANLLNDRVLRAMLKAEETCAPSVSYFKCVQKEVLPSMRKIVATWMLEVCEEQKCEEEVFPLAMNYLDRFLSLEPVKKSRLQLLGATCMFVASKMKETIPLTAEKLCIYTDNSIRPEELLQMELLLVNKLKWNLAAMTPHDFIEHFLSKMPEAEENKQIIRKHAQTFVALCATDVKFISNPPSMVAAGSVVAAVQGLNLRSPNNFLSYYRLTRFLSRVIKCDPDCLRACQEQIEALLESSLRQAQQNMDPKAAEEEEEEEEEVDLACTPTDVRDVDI

Compound | pIC50 (CDK4/Cyclin D1) | pIC50 (CDK6/Cyclin D3) | pIC50 (CDK2/Cyclin E) | pIC50 (CDK2/Cyclin A) | pIC50 (CDK9/Cyclin T)
CN1CCN(c2ccc(Nc3ncc4cc5n(c4n3)C3(CCCCC3)CNC5)nc2)CC1 [Compound 2, N-(5-(4-methylpiperazin-1-yl)pyridin-2-yl)-7′,8′-dihydro-6′H-spiro[cyclohexane-1,9′-pyrazino[1′,2′: 1,5]pyrrolo[2,3-d]pyrimidin]-2′-amine] | 7.54 | 7.05 | 5.24 | 4.89 | 5.35
CCCNC1=NCC2(CCCCC2)n2c1cc1cnc(Nc3ccc(N4CCN(C)CC4)cn3)nc12 [Compound 3, N2′-(5-(4-methylpiperazin-1-yl)pyridin-2-yl)-N6′-propyl-8′H-spiro[cyclohexane-1,9′-pyrazino[1′,2′: 1,5]pyrrolo[2,3-d]pyrimidine]-2′,6′-diamine] | 6.13 | 5.90 | < 4.00 | < 4.00 | 4.49
CN1CCN(c2ccc(Nc3ncc4cc5n(c4n3)C3(CCCCC3)CN=C5Nc3ccccc3)nc2)CC1 [Compound 4, N2′-(5-(4-methylpiperazin-1-yl)pyridin-2-yl)-N6′-phenyl-8′H-spiro[cyclohexane-1,9′-pyrazino[1′,2′: 1,5]pyrrolo[2,3-d]pyrimidine]-2′,6′-diamine] | 7.57 | 7.21 | 4.26 | 4.61 | 5.80
CN1CCN(c2ccc(Nc3ncc4cc5n(c4n3)C3(CCCCC3)CN=C5NCc3ccccc3)nc2)CC1 [Compound 5, N6′-benzyl-N2′-(5-(4-methylpiperazin-1-yl)pyridin-2-yl)-8′H-spiro[cyclohexane-1,9′-pyrazino[1′,2′: 1,5]pyrrolo[2,3-d]pyrimidine]-2′,6′-diamine] | 6.80 | 6.41 | < 4.00 | 4.15 | 4.95

Continued, values first:

pIC50 (CDK4/Cyclin D1) | pIC50 (CDK6/Cyclin D3) | pIC50 (CDK2/Cyclin E) | pIC50 (CDK2/Cyclin A) | pIC50 (CDK9/Cyclin T) | Compound
9.00 | 8.52 | 7.21 | 6.73 | 7.02 | CN1CCN(c2ccc(Nc3ncc4cc5n(c4n3)C3(CCCCC3)CN=C5)nc2)CC1 [Compound 1, N-(5-(4-methylpiperazin-1-yl)pyridin-2-yl)-8′H-spiro[cyclohexane-1,9′-pyrazino[1′,2′:1,5]pyrrolo[2,3-d]pyrimidin]-2′-amine]
7.02 | 7.62 | 5.52 | 5.43 | 5.60 | CC1=NCC2(CCCCC2)n2c1cc1cnc(Nc3ccc(N4CCN(C)CC4)cn3)nc12 [Compound 9, 6′-methyl-N-(5-(4-methylpiperazin-1-yl)pyridin-2-yl)-8′H-spiro[cyclohexane-1,9′-pyrazino[1′,2′: 1,5]pyrrolo[2,3-d]pyrimidin]-2′-amine]
7.40 | 7.15 | 5.30 | 5.15 | 5.70 | CN1CCN(c2ccc(Nc3ncc4cc5n(c4n3)C3(CCOCC3)CN=C5)nc2)CC1 [Compound 10, N-(5-(4-methylpiperazin-1-yl)pyridin-2-yl)-2,3,5,6-tetrahydro-8′H-spiro[pyran-4,9′-pyrazino[1′,2′: 1,5]pyrrolo[2,3-d]pyrimidin]-2′-amine]
7.40 | 7.00 | 5.15 | 5.00 | 6.00 | CO[C@H]1CC[C@]2(CC1)CN=Cc1cc3cnc(Nc4ccc(N5CCN(C)CC5)cn4)nc3n12 [Compound 12, (1R,4R)-4-methoxy-N-(5-(4-methylpiperazin-1-yl)pyridin-2-yl)-8′H-spiro[cyclohexane-1,9′-pyrazino[1′,2′:1,5]pyrrolo[2,3-d]pyrimidin]-2′-amine]
8.05 | 7.70 | 5.52 | 5.40 | 6.05 | CO[C@H]1CC[C@@]2(CC1)CN=Cc1cc3cnc(Nc4ccc(N5CCN(C)CC5)cn4)nc3n12 [Compound 13, (1S,4S)-4-methoxy-N-(5-(4-methylpiperazin-1-yl)pyridin-2-yl)-8′H-spiro[cyclohexane-1,9′-pyrazino[1′,2′:1,5]pyrrolo[2,3-d]pyrimidin]-2′-amine]
